# Literature values in publication PMC11070244 (Current Research in Structural Biology, 2024).
# Experiments:
# AChE = AChE (Homo sapiens, UniProt P22303); conditions: in vitro experiments; ref Durmaz et al. (2023)
# BChE [1] = molecular target: T1, BChE (Homo sapiens, UniProt P06276); conditions: in vitro experiments; ref Durmaz et al. (2023)
# BChE [2] = molecular target: T1, BChE; conditions: ref Khan et al., 2009
# T1 sequence (P06276 29-602, species assumed): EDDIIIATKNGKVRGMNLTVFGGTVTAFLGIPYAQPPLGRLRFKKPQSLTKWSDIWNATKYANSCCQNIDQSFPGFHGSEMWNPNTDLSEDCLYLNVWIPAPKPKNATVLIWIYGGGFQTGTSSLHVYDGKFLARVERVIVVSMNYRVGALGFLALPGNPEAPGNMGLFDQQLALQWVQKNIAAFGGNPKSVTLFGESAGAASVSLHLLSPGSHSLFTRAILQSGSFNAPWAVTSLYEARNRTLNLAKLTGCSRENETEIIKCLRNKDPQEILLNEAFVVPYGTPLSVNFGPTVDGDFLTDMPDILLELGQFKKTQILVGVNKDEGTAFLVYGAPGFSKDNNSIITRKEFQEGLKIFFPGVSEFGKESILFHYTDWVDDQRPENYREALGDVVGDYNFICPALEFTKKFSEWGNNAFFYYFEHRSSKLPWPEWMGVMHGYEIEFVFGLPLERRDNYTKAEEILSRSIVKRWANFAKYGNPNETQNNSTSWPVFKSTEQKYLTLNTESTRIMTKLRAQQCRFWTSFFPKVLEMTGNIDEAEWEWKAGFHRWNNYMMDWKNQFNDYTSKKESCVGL
# Sequence of AChE (P22303 32-614): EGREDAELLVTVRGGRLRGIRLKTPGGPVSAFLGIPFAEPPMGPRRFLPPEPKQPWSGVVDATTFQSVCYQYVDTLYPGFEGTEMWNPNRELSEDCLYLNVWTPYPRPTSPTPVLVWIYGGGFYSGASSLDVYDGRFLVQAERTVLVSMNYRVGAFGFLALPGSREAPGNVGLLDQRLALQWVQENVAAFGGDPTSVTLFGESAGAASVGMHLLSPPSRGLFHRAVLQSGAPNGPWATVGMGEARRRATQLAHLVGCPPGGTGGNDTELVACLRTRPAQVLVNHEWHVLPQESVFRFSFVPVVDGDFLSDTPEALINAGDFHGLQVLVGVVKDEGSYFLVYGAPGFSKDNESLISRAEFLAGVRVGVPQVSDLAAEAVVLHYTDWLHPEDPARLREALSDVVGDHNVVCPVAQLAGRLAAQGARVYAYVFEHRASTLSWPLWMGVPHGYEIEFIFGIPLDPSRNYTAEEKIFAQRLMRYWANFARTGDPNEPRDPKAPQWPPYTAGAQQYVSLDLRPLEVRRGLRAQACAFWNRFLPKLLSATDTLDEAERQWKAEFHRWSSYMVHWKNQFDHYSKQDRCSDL
Compound,Inhibition of AChE activity (AChE),Inhibition of BChE activity (BChE [1]),Docking score with BChE compared to donepezil (BChE [2])
O=C(O)[C@H]1O[C@@H](Oc2cc3oc(-c4ccccc4)cc(=O)c3c(O)c2O)[C@H](O)[C@@H](O)[C@@H]1O [baicalin],significantly inhibited,significantly inhibited,–
O=c1c(O)c(-c2ccc(O)c(O)c2)oc2cc(O)cc(O)c12 [quercetin],–,–,stronger docking score
